# According to PMC10449633 (Nature Chemical Biology, 2023):
# Read-outs that look alike come from different tables or passages of the source. Numbered stars: 1 amine (or outer) side, 2 acyl side, 3 side chain; on linkers, the order of the positions; unused ones are H or OH. Square brackets hold non-standard residues; d marks the D form. Peptide text beside a SMILES is read from it. ξ: configuration not given here. X1 = CN(C(Cc1cn(Cc2ccc(Br)cc2)c2ccccc12)C(=O)[*:2])[*:1]; ξAla(CF3) = NC(CC(F)(F)F)C(=O)O; X2 = N#CCCC(O[*:1])C(=O)[*:2]; NMeL = CN[CH](CC(C)C)C(=O)O; NMeA = CN[CH](C)C(=O)O
# What was measured:
# [1] = target: Sec61α N300M (Canis lupus familiaris, UniProt P38377, N300M); experiment: Luciferase reporter assay in HEK293 cells expressing Sec61α N300M; settings: HEK293, 24 h, read-out: luciferase reporter activity (% of no-drug control), N300M
# Description: Data are mean values ± s.d. from n = 2 independent experiments.
# HEK293T cells (0.3 × 10^6) were seeded per well of a six-well plate and incubated at 37 °C in 5% CO2 for 24 h to adhere. Each of the two wells was transfected with 1 µg of plasmid encoding a luciferase with the signal peptide of either VCAM1 or pPL using PEI in a 5:1 ratio, after which cells were returned to the incubator for a further 24 h. Transfected cells were then resuspended following trypsinization, cell count estimated using a TC20 Automated Cell Counter (BioRad) and diluted to seed a 96-well flat-bottom plate with 1.6 × 10^4 cells per well. […] Cells were then incubated for a further 24 h, after which the luciferase-containing media were transferred to a clean 96-well plate and stored at −20 °C. Luciferase activity of the media was estimated using a Gaussia-GLOW Juice Luciferase Assay kit from PJK Biotech GmbH as per the manufacturer’s instructions. Luminescence was measured using an EnSpire Multimode plate reader (PerkinElmer). Background luminescence from media placed in a well with neither cells nor drug was subtracted from all values, and measurements were calculated as a percentage of luminescence intensity of a well expressing the appropriate luciferase construct in the absence of any drug. Curves were fitted, and IC50 values were calculated using GraphPad Prism 8.
# HEK293 Flp-In T-REx cells (Thermo Fisher Scientific, R78007) were cultured in Dulbecco’s modified Eagle’s medium (Gibco) supplemented with 10% FBS (Gibco) at 37 °C in a humidified 5% CO2 atmosphere. Approximately 0.3 µg of pOG44 and 1 µg of targeting construct plasmids were mixed in 250 µl of OptiMEM (Thermo Fisher Scientific, 51985-026). A total of 3 µl (3 µg) Lipofectamine3000 transfection reagent was then added to the DNA mix and incubated at room temperature for 20 min, and the whole mixture was added to the cells. Cells were exposed to 100 µg ml^−^1 hygromycin B (Invitrogen) and 10 µg ml^−^1 blasticidin for 3–4 weeks until the appearance of resistant colonies. Colonies were expanded into T75 flasks and induced with doxycycline (Sigma-Aldrich, D9891) at a concentration of 1–5 µg ml^−^1 for 48 h. Cells were collected, and total RNA was extracted followed by cDNA amplification and sequencing of Sec61 with gene-specific PCR primers to confirm. Cells were then used for the luciferase reporter assays as above.
# Data are mean values ± SD and are representative of n = 2 independent experiments.
# [2] = target: T1, Sec61 (Homo sapiens, UniProt P61619); experiment: cell-based; settings: 24 h, range in brackets
# T1 construct: endogenous in cells
# Target sequence in this assay (P60059 whole entry): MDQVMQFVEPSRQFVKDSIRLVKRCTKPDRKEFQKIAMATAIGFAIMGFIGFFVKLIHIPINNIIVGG
# Target sequence in this assay (P61619 whole entry): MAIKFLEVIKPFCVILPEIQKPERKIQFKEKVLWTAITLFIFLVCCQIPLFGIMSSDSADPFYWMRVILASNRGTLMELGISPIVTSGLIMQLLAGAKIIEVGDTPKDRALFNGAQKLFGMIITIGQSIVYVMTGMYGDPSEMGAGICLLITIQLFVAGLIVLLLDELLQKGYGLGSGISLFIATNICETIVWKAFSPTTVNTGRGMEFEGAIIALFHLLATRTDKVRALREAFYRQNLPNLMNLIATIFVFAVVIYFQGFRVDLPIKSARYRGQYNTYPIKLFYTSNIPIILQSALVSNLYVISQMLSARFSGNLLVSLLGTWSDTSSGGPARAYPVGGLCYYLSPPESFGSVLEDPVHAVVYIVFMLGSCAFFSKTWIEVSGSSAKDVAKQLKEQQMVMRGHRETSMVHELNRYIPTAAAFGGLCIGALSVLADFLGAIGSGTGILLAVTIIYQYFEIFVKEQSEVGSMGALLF
# Target sequence in this assay (P60468 whole entry, further chain): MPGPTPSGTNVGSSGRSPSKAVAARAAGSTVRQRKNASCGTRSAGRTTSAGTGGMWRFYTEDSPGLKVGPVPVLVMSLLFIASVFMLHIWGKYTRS
# [3] = target: T1, Sec61; experiment: signal peptide-GLuc (SP-GLuc) reporter panel, 89 constructs; assay type: cell-based
# Description: The heat map depicts IC50 values calculated from each SP-GLuc dose–response curve. d, Arthritis was induced in BALB/c mice with antibodies specific for type II collagen (mAb) on day 0 and endotoxin on day 3. On day 4, when the disease was present in all animals, mice were randomized and treated for 2 weeks with thrice weekly (QODx3) or weekly (QW) intravenous administration of vehicle or KZR-8445 or intraperitoneal administration of dexamethasone. Clinical scores (0–4 per paw; n = 10 per group) and body weights were followed until day 14. Data are presented as mean values ± s.d. mAb, monoclonal antibody. Source data
# To investigate the effects of KZR-8445 on secretory and membrane protein biogenesis and to establish Sec61α as the relevant target, we quantified the secretion of a doxycycline-inducible Gaussia luciferase (GLuc) reporter fused to the C-terminus of two full-length pro-inflammatory cytokines, interleukin-2 (IL-2) (which contains a cleavable signal peptide) and tumor necrosis factor-alpha (TNFα) (which contains an N-terminal transmembrane anchor). […] KZR-8445 is structurally related to CT8, which discriminates among Sec61 clients based largely on their N-terminal signal peptide. […] We also directly compared KZR-8445 to mycolactone A/B, a structurally distinct and relatively client-nonselective Sec61 inhibitor[8],[25], for their ability to discriminate between vascular cell adhesion molecule (VCAM) and preprolactin (pPL) signal peptides.
# Target sequence in this assay (P61619 whole entry): as the sequence (P61619 whole entry) above
# Target sequence in this assay (P60059 whole entry, further chain): as the sequence (P60059 whole entry) above
# Target sequence in this assay (P60468 whole entry, further chain): as the sequence (P60468 whole entry, further chain) above
# Chain of Sec61α N300M (P38377 whole entry N300M): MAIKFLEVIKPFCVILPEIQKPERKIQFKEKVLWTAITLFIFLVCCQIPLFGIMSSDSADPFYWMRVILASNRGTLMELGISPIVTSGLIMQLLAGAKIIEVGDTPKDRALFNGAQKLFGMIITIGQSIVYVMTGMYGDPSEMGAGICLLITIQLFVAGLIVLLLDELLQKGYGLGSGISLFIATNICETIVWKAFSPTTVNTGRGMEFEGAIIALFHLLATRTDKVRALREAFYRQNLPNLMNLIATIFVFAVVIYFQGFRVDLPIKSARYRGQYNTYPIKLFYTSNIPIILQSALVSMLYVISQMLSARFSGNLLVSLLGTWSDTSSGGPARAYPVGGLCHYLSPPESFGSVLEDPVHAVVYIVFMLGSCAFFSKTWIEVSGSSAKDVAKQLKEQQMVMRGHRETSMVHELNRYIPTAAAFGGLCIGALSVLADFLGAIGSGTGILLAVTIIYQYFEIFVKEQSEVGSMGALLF
# Chain of Sec61α N300M (P60468 whole entry, further chain): as the sequence (P60468 whole entry, further chain) above
# Chain of Sec61α N300M (P60059 whole entry, further chain): as the sequence (P60059 whole entry) above
smiles,measurement,setting,value
CC(C)CC1NC(=O)C(Cc2cn(Cc3ccc(Br)cc3)c3ccccc23)N(C)C(=O)C(CC(F)(F)F)NC(=O)C(CC(C)C)N(C)C(=O)C(CC(F)(F)F)NC(=O)C(CCC#N)OC(=O)C(C)N(C)C1=O (stereo not shown) [KZR-8445] (cyclo([X1]L[NMeA][X2][ξAla(CF3)][NMeL][ξAla(CF3)]); configuration not given here),remaining activity at 0.00018303 µM,[1]; Drug nM (log10) 0.18303,96.7%
same,remaining activity at 0.000660151 µM,[1]; Drug nM (log10) 0.660151,105%
same,remaining activity,[1]; Drug nM (log10) 1.61439,76.6%
same,remaining activity,[1]; Drug nM (log10) 2.09151,74%
same,remaining activity,[1]; Drug nM (log10) 3.04576,68%
same,remaining activity at 0.000508 µM,[1]; Drug nM (log10) -0.29409,92.5%
same,IC50,"[2]; HER3 signal peptide-GLuc, read-out: IC50 (nM) HER3",72 nM
same,IC50,"[2]; PD1 signal peptide-GLuc, read-out: IC50 (nM) PD1",32 nM
same,IC50,"[2]; full-length IL-2-GLuc, read-out: IC50 (nM) IL-2",84 nM
same,IC50,"[2]; full-length TNFα-GLuc, read-out: IC50 (nM) TNFα",40 nM
same,IC50,"[2]; prolactin signal peptide-GLuc, read-out: IC50 (nM) Prolactin",1070 nM
same,IC50,"[3]; 89 signal peptide-GLuc reporters, 24 h, read-out: highest IC50 in the panel",> 25000 nM
same,IC50,"[3]; 89 signal peptide-GLuc reporters, 24 h, read-out: lowest IC50 in the panel",5 nM
same,IC50,"[3]; 89 signal peptide-GLuc reporters, 24 h, read-out: median IC50 of the panel",366 nM
same,IC50,"[3]; ADPGK SP-GLuc, read-out: log10(IC50 8445) (converted)",540 nM
same,IC50,"[3]; ANGPTL3 SP-GLuc, read-out: log10(IC50 8445) (converted)",49.4 nM
same,IC50,"[3]; APOC1 SP-GLuc, read-out: log10(IC50 8445) (converted)",135 nM
same,IC50,"[3]; APP SP-GLuc, read-out: log10(IC50 8445) (converted)",449 nM
same,IC50,"[3]; AXL SP-GLuc, read-out: log10(IC50 8445) (converted)",13.8 nM
same,IC50,"[3]; BCAN SP-GLuc, read-out: log10(IC50 8445) (converted)",142 nM
same,IC50,"[3]; C1S SP-GLuc, read-out: log10(IC50 8445) (converted)",383 nM
same,IC50,"[3]; CALCA SP-GLuc, read-out: log10(IC50 8445) (converted)",721 nM
same,IC50,"[3]; CALCB SP-GLuc, read-out: log10(IC50 8445) (converted)",972 nM
same,IC50,"[3]; CD40 SP-GLuc, read-out: log10(IC50 8445) (converted)",11300 nM
same,IC50,"[3]; CD47 SP-GLuc, read-out: log10(IC50 8445) (converted)",373 nM
same,IC50,"[3]; CD96 SP-GLuc, read-out: log10(IC50 8445) (converted)",29.2 nM
same,IC50,"[3]; CD274 SP-GLuc, read-out: log10(IC50 8445) (converted)",93.3 nM
same,IC50,"[3]; CDH1 SP-GLuc, read-out: log10(IC50 8445) (converted)",811 nM
same,IC50,"[3]; CDH2 SP-GLuc, read-out: log10(IC50 8445) (converted)",15.5 nM
same,IC50,"[3]; CDH5 SP-GLuc, read-out: log10(IC50 8445) (converted)",76 nM
same,IC50,"[3]; CNPY2 SP-GLuc, read-out: log10(IC50 8445) (converted)",394 nM
same,IC50,"[3]; CPD SP-GLuc, read-out: log10(IC50 8445) (converted)",694 nM
same,IC50,"[3]; CR1L SP-GLuc, read-out: log10(IC50 8445) (converted)",61.3 nM
same,IC50,"[3]; CSF2RB SP-GLuc, read-out: log10(IC50 8445) (converted)",652 nM
same,IC50,"[3]; CTLA4 SP-GLuc, read-out: log10(IC50 8445) (converted)",343 nM
same,IC50,"[3]; DDRGK1 SP-GLuc, read-out: log10(IC50 8445) (converted)",1850 nM
same,IC50,"[3]; DMKN SP-GLuc, read-out: log10(IC50 8445) (converted)",2630 nM
same,IC50,"[3]; DNAJB11 SP-GLuc, read-out: log10(IC50 8445) (converted)",4360 nM
same,IC50,"[3]; ERBB2 SP-GLuc, read-out: log10(IC50 8445) (converted)",536 nM
same,IC50,"[3]; F3 SP-GLuc, read-out: log10(IC50 8445) (converted)",162 nM
same,IC50,"[3]; FGF23 SP-GLuc, read-out: log10(IC50 8445) (converted)",28.2 nM
same,IC50,"[3]; FLT3 SP-GLuc, read-out: log10(IC50 8445) (converted)",360 nM
same,IC50,"[3]; FNDC10 SP-GLuc, read-out: log10(IC50 8445) (converted)",726 nM
same,IC50,"[3]; FURIN SP-GLuc, read-out: log10(IC50 8445) (converted)",4740 nM
same,IC50,"[3]; GAS6 SP-GLuc, read-out: log10(IC50 8445) (converted)",118 nM
same,IC50,"[3]; HJV SP-GLuc, read-out: log10(IC50 8445) (converted)",427 nM
same,IC50,"[3]; HLA-G SP-GLuc, read-out: log10(IC50 8445) (converted)",39.2 nM
same,IC50,"[3]; HSPA13 SP-GLuc, read-out: log10(IC50 8445) (converted)",1110 nM
same,IC50,"[3]; IGF1R SP-GLuc, read-out: log10(IC50 8445) (converted)",814 nM
same,IC50,"[3]; IL1RAP SP-GLuc, read-out: log10(IC50 8445) (converted)",101 nM
same,IC50,"[3]; IL4R SP-GLuc, read-out: log10(IC50 8445) (converted)",32 nM
same,IC50,"[3]; IL4 SP-GLuc, read-out: log10(IC50 8445) (converted)",359 nM
same,IC50,"[3]; IL5RA SP-GLuc, read-out: log10(IC50 8445) (converted)",1310 nM
same,IC50,"[3]; IL5 SP-GLuc, read-out: log10(IC50 8445) (converted)",1300 nM
same,IC50,"[3]; IL6R SP-GLuc, read-out: log10(IC50 8445) (converted)",92.3 nM
